{
  "source": "patent US20030049305A1",
  "about": "“Preserved feedstuffs and process for their production” (priority 2001, published 2003)",
  "key": {"[1]": {"test_system": "L. monocytogenes ATCC 13311", "test": "Bacterial count in whey powder paste inoculated with Listeria monocytogenes, with LAE added", "format": "cell-based", "conditions": "whey powder paste pH 6.1-6.2; for bacterial count after 48 h as % of the value on addition: 800 mg of LAE/kg, 48 h storage at room temperature; for change of bacterial count versus control sample without LAE: LAE 200, 400 and 800 mg/kg, after 24 h, continued with longer storage at room temperature", "experimental": "(§1) The invention is described in more detail by the examples below. In these examples partially desugared whey powder is used, a constituent of many feedstuffs which was set to the pH range of 6.1-6.2 which is favorable for the growth of many bacteria. The whey powder was made into a paste using aqueous buffer solution, so that together with the bacterial suspension in physiological saline a ratio of whey powder to water of approximately 2:1 resulted. LAE was added to the samples at concentrations of 200, 400 and 800 mg/kg, while a control sample received no addition. The bacterial count was determined in a conventional manner in the resultant pastes immediately after their preparation, after 24 h and after 48 h of storage at room temperature.\nEffect on Listeria monocytogenes (approximately 5×10^5/g)\nA paste of whey powder prepared in the manner described was inoculated with approximately 5×10^5/g L. monocytogenes ATCC 13311. […] At an addition of 800 mg of LAE/kg, the bacterial count after 48 h was approximately 15% of the value on addition.\nEffect on Listeria monocytogenes (approximately 2×10^3/g)\nA paste of whey powder prepared in the manner described was inoculated with approximately 2×10^3/g L. monocytogenes ATCC 13311. […] At an addition of 800 mg of LAE/kg, the bacterial count after 48 h was less than 20% of the value on addition."}, "[2]": {"test_system": "S. typhimurium NCTC 10527", "test": "Bacterial count in whey powder paste inoculated with Salmonella typhimurium, with LAE added", "format": "cell-based", "conditions": "inoculum approximately 3×10^4/g, whey powder paste pH 6.1-6.2", "experimental": "as §1\nEffect on Salmonella typhimurium (approximately 3×10^4/g)\nA paste of whey powder prepared in the manner described was inoculated with approximately 3×10^4/g S. typhimurium NCTC 10527."}, "E. coli O0157:H7 EDL 933": {"test_system": "E. coli O0157:H7 EDL 933", "test": "Bacterial count in whey powder paste inoculated with E. coli O157:H7, with LAE added", "format": "cell-based, Escherichia coli O157:H7", "conditions": "whey powder paste pH 6.1-6.2; for bacterial count after 48 h as % of the value on addition: 800 mg of LAE/kg, 48 h storage at room temperature; for change of bacterial count versus control sample without LAE: LAE 200, 400 and 800 mg/kg, after 24 h, continued with longer storage at room temperature", "experimental": "as §1\nEffect on Escherichia coli O157:H7 (approximately 6×10^5/g)\nA paste of whey powder prepared in the manner described was inoculated with approximately 6×10^5/g of E. coli O0157:H7 EDL 933. […] At an addition of 800 mg of LAE/kg, the bacterial count after 48 h was less than 10% of the value on addition.\nEffect on Escherichia coli O157:H7 (approximately 3×1 0^3/g)\nA paste of whey powder prepared in the manner described was inoculated with approximately 3×10^3/g of E. coli O0157:H7 EDL 933. […] At an addition of 800 mg of LAE/kg, the bacterial count after 48 h was less than 10% of the value on addition."}, "[3]": {"conditions": "inoculum approximately 2×10^3/g"}, "[4]": {"conditions": "inoculum approximately 5×10^5/g"}, "[5]": {"conditions": "inoculum approximately 3×10^3/g"}, "[6]": {"conditions": "inoculum approximately 6×10^5/g"}},
  "data": [
    {"smiles": "CCCCCCCCCCCC(=O)N[C@@H](CCCNC(=N)N)C(=O)OCC", "note": "[LAE, lauroylarginine ethyl ester]", "values": [
      {"measurement": "bacterial count after 48 h as % of the value on addition", "setting": "[1]; [3]", "result": "less than 20%"},
      {"measurement": "change of bacterial count versus control sample without LAE", "setting": "[1]; [3]", "result": "more marked concentration-dependent decrease"},
      {"measurement": "bacterial count after 48 h as % of the value on addition", "setting": "[1]; [4]", "result": "approximately 15%"},
      {"measurement": "change of bacterial count versus control sample without LAE", "setting": "[1]; [4]", "result": "more marked concentration-dependent decrease"},
      {"measurement": "detectability of test bacteria after 48 h", "setting": "[2]; 800 mg of LAE/kg, 48 h storage at room temperature", "result": "no longer detectable"},
      {"measurement": "change of bacterial count versus control sample without LAE", "setting": "[2]; LAE 200, 400 and 800 mg/kg, after 24 h, continued with longer storage at room temperature", "result": "much more marked concentration-dependent decrease"},
      {"measurement": "bacterial count after 48 h as % of the value on addition", "setting": "E. coli O0157:H7 EDL 933; [5]", "result": "less than 10%"},
      {"measurement": "change of bacterial count versus control sample without LAE", "setting": "E. coli O0157:H7 EDL 933; [5]", "result": "much more marked concentration-dependent decrease"},
      {"measurement": "bacterial count after 48 h as % of the value on addition", "setting": "E. coli O0157:H7 EDL 933; [6]", "result": "less than 10%"},
      {"measurement": "change of bacterial count versus control sample without LAE", "setting": "E. coli O0157:H7 EDL 933; [6]", "result": "marked concentration-dependent decrease"}
    ]}
  ]
}
